One series concerns A549. Kind of series: Cytotoxicity against human A549 cells after 48 hrs by SRB assay. Type of series: functional, cell-based. To be noted: A549, 48 h. A general note: Sulforhodamine B stains cellular protein and so reports cell mass.
A short description of series [1]: Cytotoxicity against human SKOV3 cells after 48 hrs by SRB assay. It counts as functional, cell-based. Particulars: SK-OV-3, 48 h.
The test system of the next series is SK-MEL-2. The experiment in a line: Cytotoxicity against human SK-MEL-2 cells after 48 hrs by SRB assay. It counts as functional, cell-based. Particulars: SK-MEL-2, 48 h.
Series [2] in a line: Cytotoxicity against human HCT15 cells after 48 hrs by SRB assay. It counts as functional, cell-based. Particulars: HCT-15, 48 h.
A further series relates to BV-2. The experiment in a line: Anti-neuroinflammatory activity in mouse BV2 cells assessed as inhibition of LPS-induced NO production after 24 hrs by Griess assay. It counts as functional, cell-based. To be noted: BV-2, 24 h. A general note: Griess reagent forms a coloured azo dye with nitrite.
The nature of series [3]: Cytotoxicity against mouse BV2 cells assessed as viable cells at 20 uM by MTT assay. Type of series: cell-based, BV-2. To be noted: read-out: Activity.
For a further series, the system named is C6. The experiment in a line: Stimulation of NGF secretion in rat C6 cells at 20 uM after 24 hrs by ELISA. It counts as functional.
Series [4] can be described thus: Cytotoxicity against rat C6 cells assessed as viable cells at 20 uM by MTT assay. Type of series: cell-based. To be noted: read-out: Activity. In general terms: Tetrazolium dyes change colour on reduction, which living cells bring about.

Structures are written as SMILES.

On to `COc1ccc(-c2cc(OC)c(O)c(OC)c2)c(OC)c1`, for which the IC50 was determined as 5.18 µM with A549; 7.84 µM in series [1]; 6.94 µM in the series on SK-MEL-2; 7.81 µM in series [2]; 39.6 µM in the series on BV-2. Further, the viability at 20 µM in series [3] worked out at 129%; in series [4], 119%. In the series with C6, the Activity was determined as 164.56%.
Regarding `CNC(=N)NCCC[C@H](N)C(=O)O` [TILARGININE], the IC50 in the series on BV-2 was found to be 20.5 µM. For the same compound, the viability at 20 µM in series [3] came out at 100%.
Take `COc1cc(-c2ccccc2)cc(OC)c1O` [AUCUPARIN]: the concentration for half-maximal inhibition (IC50) in the series on BV-2 is 50.1 µM. Also, the viability at 20 µM in series [3] was determined as 126%; in series [4], 117%. Besides, in the series on C6, the Activity stood at 125.76%.
For the compound `COc1ccc(-c2cc(OC)c(O)c(Oc3c(OC)cc([C@@H](O)[C@H](O)CO)cc3OC)c2)c(OC)c1`, the IC50 came to 12.7 µM with A549; 29.5 µM in series [1]; 16.3 µM with SK-MEL-2; 27.3 µM in series [2]; 48.4 µM with BV-2. Moreover, the viability at 20 µM in series [3] was found to be 132%; in series [4], 115%. Further, the Activity in the series with C6 is 125.81%.
As for `COc1cc(-c2ccccc2)cc(Oc2c(OC)cc([C@@H](O)[C@H](O)CO)cc2OC)c1O` [BERBEKORIN A], the IC50 in the series on A549 was found to be 4.12 µM; in series [1] it was 4.03 µM; with SK-MEL-2, 4.49 µM; in series [2] it was 1.96 µM; with BV-2, 49.3 µM. Moreover, the viability at 20 µM in series [3] stood at 116%; in series [4] it was 119%. The Activity in the series on C6 is listed as 155.02%.
`CCCCC/C=C/C(=O)CCc1ccc(O)c(OC)c1` [SHOGAOL]: the Activity with C6 is on record as 158.18%. Moreover, in series [4], the viability at 20 µM came to 110%.
Turning to `COc1cc(-c2ccccc2O)cc(OC)c1O`, the IC50 in the series with BV-2 came out at 38.1 µM. Besides, the viability at 20 µM was 118% in series [3] and 119% in series [4]. The Activity in the series with C6 turned out to be 137.33%.
With `COc1cc([C@@H]2c3cc4c(cc3[C@@H](O[C@@H]3O[C@@H]5CO[C@@H](C)O[C@H]5[C@H](O)[C@H]3O)[C@H]3COC(=O)[C@H]23)OCO4)cc(OC)c1O` [ETOPOSIDE], the IC50 in the series with A549 was determined as 1.74 µM; in series [1], 1.96 µM; in the series with SK-MEL-2, 1.33 µM; in series [2] it was 2.95 µM.
Turning to `COc1ccc2c(oc3c(OC)c(OC)c(O)cc32)c1O`, the 50% inhibitory concentration (IC50) in the series on A549 was greater than 30 µM; in series [1] it was 19.3 µM; in the series with SK-MEL-2 it was 23.5 µM; in series [2], greater than 30 µM; in the series with BV-2 it was 15.8 µM. Also, the viability at 20 µM in series [3] is 198%; in series [4], 113%. For the same compound, in the series on C6, the Activity amounted to 186.49%.
For the compound `COc1ccccc1-c1cc(OC)c(O)c(OC)c1`, the concentration for half-maximal inhibition (IC50) in the series with BV-2 was 28.1 µM. The viability at 20 µM was determined as 138% in series [3] and 118% in series [4]. In the series with C6, the Activity is 152.86%.

The IC50 is the point on the concentration scale where inhibition reaches its midpoint.
